Results taken from patent publication US9908908B2, “Tenofovir prodrug and pharmaceutical uses thereof” (Jiangsu Hansoh Pharmaceutical Co., Ltd., priority 2012, dated 2018).
Read-outs that look alike come from different tables or passages of the source.

Columns and labels:
[1] = tested on: hepatitis B virus (HBV); assay: In vitro anti-hepatitis B virus activity (HBV DNA-replication, dot blot); format: cell-based
Procedure: HepG 2.2.15 cell was used as the hepatitis B virus (HBV) vehicle to determine the inhibition effect of the compounds on DNA-replication of HBV.
Test method: HepG 2.2.15 cells were seeded into a 96-well culture plate. Various dilutions of test samples and positive control were added, respectively, after 24 hours, in which a cell control well was set. The medium was replaced with culture containing various dilutions of test samples after 72 hours. The supernatants and HepG 2.2.15 cells were collected after 6 days of culture.

[2] = tested on: HepG 2.2.15 cells; assay: Cytotoxicity test (CellTiter-Blue); format: cell-based
Procedure: (§1) Test method: HepG 2.2.15 cells were seeded into a 96-well culture plate and various dilutions of test samples and positive control were added, respectively. CellTiter-Blue (Promega, Catalog #G8081) was added for 6 days of culture.

[3] = Cytotoxicity test (CellTiter-Blue); format: cell-based; settings: human; HepG 2.2.15 cells, 6 days of culture; read-out: Toxicity CC50
Procedure: as §1

[4] = Stability test in acidic medium (hydrochloric acid solution pH 2.0); format: physicochemical; settings: for Change value / Purity after 6 hours / Initial purity: Acid medium (pH = 2); for Change value / Purity after 6 hours: 37° C., 6 hours; for Initial purity: initial sample
Procedure: 4.5 mL of 36% hydrochloric acid was transferred into a 1 L volumetric flask and diluted with water to 1 L to prepare a stock solution. Then 10 mL of the above solution was transferred into a 50 mL volumetric flask and diluted with water to 50 mL to prepare the hydrochloric acid solution with pH 2.0.
5.0 mg of GS-7340 were transferred into a 5 mL volumetric flask and mixed with 2.5 mL of isopropyl alcohol to dissolve GS-7340, and then the hydrochloric acid solution (pH 2.0) was added to 5 mL. The solution was shaken well and filtered for using.
5.0 mg of compound Ia1 were transferred into a 5 mL volumetric flask and mixed with 2.5 mL of isopropyl alcohol to dissolve compound Ia1, and then the hydrochloric acid solution (pH 2.0) was added to 5 mL. The solution was shaken well and filtered for using.
(§2) The prepared sample was filled into the chromatography vial as the initial sample and immediately injected. Meanwhile, the rest of the samples were put into a 37° C. incubator, and were injected into the HPLC system after 6 hours.

[5] = Stability test in simulated gastric juice (pepsin, pH 2.0); format: physicochemical; settings: for Change value / Purity after 6 hours: 37° C., 6 hours; for Initial purity: initial sample
Procedure: 10 ml of the stock solution and 500.0 mg of pepsin were transferred into a 50 mL volumetric flask and diluted with water to 50 ml, which was then subjected to ultrasound to dissolve the pepsin (the solution was not clear now) and then filtered to give a clear solution as simulated gastric juice.
5.0 mg of GS-7340 were transferred into a 5 mL volumetric flask and mixed with 2.5 mL of isopropyl alcohol to dissolve GS-7340, and then the simulated gastric juice was added to 5 mL. The solution was shaken well and filtered for using.
5.0 mg of compound Ia1 were transferred into a 5 mL volumetric flask and mixed with 2.5 mL of isopropyl alcohol to dissolve compound Ia1, and then the simulated gastric juice was added to 5 mL. The solution was shaken well and filtered for using.
as §2

[6] = Metabolic stability in fresh human whole blood and distribution test in PBMCs; format: in vitro ADME; settings: for active metabolite-tenofovir detected in plasma (in words): after incubation with fresh human whole blood
Procedure: Different tenofovir prodrugs were incubated together with fresh human whole blood at 37° C. Plasma and PBMCs were separated, respectively, from the whole blood (Ficoll density gradient centrifugation method) after 1 hour and 2 hours incubation to determine the concentrations of prototype drug and metabolite-tenofovir in plasma and PBMCs. The PBMCs were counted via cell counter and each PBMC was treated as 200 fL to calculate intracellular drug concentration.
20 μL of internal standard solution (400 ng/mL SN-38 solution), […], methanol-water (50:50, v/v), and 200 μL acetonitrile were added to 100 μL plasma sample or PBMC sample, respectively. The mixture was mixed by vortex for 1 min and centrifuged for 5 min (14000 rpm). 20 μL supernatant and 180 μl mobile phase were mixed by vortex for 1 min, and 10 μL of the above mixture was injected into LC/MS/MS for analysis.

[7] = tested on: HIV-1 (IIIb); assay: microbe, parasite or virus in culture; format: cell-based
Procedure: 1) MT-2 cells were infected with HIV-1 (IIIb) to form multiplicity of infection (MOI) 0.01 TCID50 per cell.
2) The mixture of virus and cells was incubated in a 384-well plate for 3 days.
4) The supernatant was transferred to a new plate and incubated with reporter cells (HeLa) for 24 hours.
5) Detecting beta-GAL activity to evaluate anti-HIV activity.
(§3) 7) The antiviral activity and cytotoxicity were calculated according to the following equation: Antiviral activity (%)=100−(Detection value−Maximum value)/(Minimum value−Maximum value)*100 Cytotoxicity (%)=100−(Detection value−Maximum value)/(Minimum value−Maximum value)*100 8) EC50 and CC50 were calculated with Fit Curve of Graphpad Prism 5 (the results are shown in Table 4).

[8] = Cytotoxicity in cells free of virus (anti-HIV test); format: cell-based; settings: human
Procedure: (§4) 3) Cells for the cytotoxic detection were incubated in a 384-well plate for 3 days.
(§5) 6) Luminescent signal of the cells free of virus was detected to evaluate cytotoxicity after incubation for 3 days.
as §3

[9] = background statement; cited from earlier work
[10] = tested on: MT-2 cells; assay: Cytotoxicity in cells free of virus (anti-HIV test); format: cell-based
Procedure: as §4, §5, §3

[11] = Hepatitis B virus, HepG2.2.15, 144 h
[12] = 0 hour, initial concentration, fresh human whole blood
[13] = 1 hour incubation at 37° C., in PBMCs
[14] = 1 hour incubation at 37° C., in plasma
[15] = 2 hour incubation at 37° C., in PBMCs
[16] = 2 hour incubation at 37° C., in plasma
[17] = Human immunodeficiency virus 1, IIIB, MT2, 72 h
[18] = cells free of virus, 3 days, luminescent signal, read-out: Toxicity CC50

Row | SMILES | IC50 [1, 11] [nM] | CC50 at 6 days [3] [µM] | inhibitory effect on HBV-DNA replication (in words) ([1]; HepG 2.2.15 cells) | inhibitory effect on HBV-DNA replication compared with positive control GS7340 ([1]; HepG 2.2.15 cells) | cytotoxicity (in words) [2] | other results
1 | CC(C)OC(=O)[C@H](C)N[P@](=O)(CO[C@H](C)Cn1cnc2c(N)ncnc21)Oc1ccccc1 [GS-7171, reference compound] | – | – | – | – | – | IC50 ([1]; HepG 2.2.15 cells, 6 days of culture, HBV DNA-replication by dot blot, read-out: IC50): 35 nM; CC50 ([2]; 6 days of culture, read-out: Toxicity CC50): > 10 µM
2 | CC(C)OC(=O)[C@H](C)N[P@](=O)(CO[C@H](C)Cn1cnc2c(N)ncnc21)Oc1ccccc1 [GS-7340, reference compound] | 14 | > 10 | – | – | – | Change value [4]: 3.2%; Purity after 6 hours [4]: 95.5%; Initial purity [4]: 98.7%; Change value [5]: 4.3%; Purity after 6 hours [5]: 94.4%; Initial purity [5]: 98.7%; Prototype concentration [6, 12]: 16.9 µM; Prototype concentration [6, 13]: 2448 µM; Prototype concentration [6, 14]: 14.5 µM; change of active metabolite-tenofovir concentration in PBMCs over the incubation time (in words) ([6]; 1 hour to 2 hours): almost the same; change of active metabolite-tenofovir released in plasma over the incubation time (in words) ([6]; 1 hour to 2 hours): increased significantly; Prototype concentration [6, 15]: 2357 µM; Prototype concentration [6, 16]: 13.0 µM; active metabolite-tenofovir detected in plasma (in words) [6]: certain active metabolite-tenofovir was detected; EC50 [7, 17]: 12 nM; CC50 at 3 days [8, 18]: > 150 µM; metabolite-tenofovir detected in plasma [9]: 1-2%; total concentration of the active ingredient in PBMCs relative to tenofovir [9]: 30 times; total concentration of the active ingredient in PBMCs relative to tenofovir disoproxil [9]: 10 times
3 | CC(C)OC(=O)C(C)(C)N[P@](=O)(CO[C@H](C)Cn1cnc2c(N)ncnc21)Oc1ccccc1 [Ia1] | 5 | > 10 | significant inhibitory effect | better than that of the positive control GS7340 | without cytotoxicity | Change value [4]: 0.6%; Purity after 6 hours [4]: 98.1%; Initial purity [4]: 98.7%; stability compared to GS-7340 (in words) ([4]; acid medium and simulated gastric juice): significantly improved; Change value [5]: 0.5%; Purity after 6 hours [5]: 98.2%; Initial purity [5]: 98.7%; Prototype concentration [6, 12]: 12.4 µM; Prototype concentration [6, 13]: 1528 µM; Prototype concentration [6, 14]: 12.3 µM; change of active metabolite-tenofovir concentration in PBMCs over the incubation time (in words) ([6]; 1 hour to 2 hours): increased significantly; Prototype concentration [6, 15]: 1282 µM; Prototype concentration [6, 16]: 12.2 µM; concentration of active metabolite-tenofovir in PBMCs relative to GS-7340 ([6]; after incubation for 2 hours): about three times; active metabolite-tenofovir detected in plasma (in words) [6]: no active metabolite-tenofovir was detected; stability in plasma (in words) ([6]; fresh human whole blood, compared with GS-7340): significantly better than the positive control GS-7340; inhibitory effect on HIV virus (in words) [7]: strong inhibitory effect; EC50 [7, 17]: 8 nM; CC50 at 3 days [8, 18]: > 150 µM; cytotoxicity (in words) [10]: no cytotoxicity
4 | CC(C)OC(=O)C(C)(C)N[P@@](=O)(CO[C@H](C)Cn1cnc2c(N)ncnc21)Oc1ccccc1 [Ia2] | 32 | > 10 | – | – | – | –
5 | CC(C)OC(=O)C(C)(C)NP(=O)(CO[C@H](C)Cn1cnc2c(N)ncnc21)Oc1ccccc1 (some centres unmarked) [Ia] | 21 | > 10 | – | – | – | –
6 | CC(C)OC(=O)C1(N[P@](=O)(CO[C@H](C)Cn2cnc3c(N)ncnc32)Oc2ccccc2)CC1 [Ib1] | 15 | > 10 | significant inhibitory effect | – | without cytotoxicity | –
7 | CC(C)OC(=O)C(C)(C)N[P@](=O)(CO[C@H](C)Cn1cnc2c(N)ncnc21)Oc1ccc(Cl)cc1 [Ic1] | 5.3 | > 10 | significant inhibitory effect | better than that of the positive control GS7340 | without cytotoxicity | –
8 | COc1ccc(O[P@@](=O)(CO[C@H](C)Cn2cnc3c(N)ncnc32)NC(C)(C)C(=O)OC(C)C)cc1 [Id1] | 6.2 | > 10 | significant inhibitory effect | better than that of the positive control GS7340 | without cytotoxicity | –
9 | CC(C)OC(=O)C(C)(C)N[P@](=O)(CO[C@H](C)Cn1cnc2c(N)ncnc21)Oc1cccc2ccccc12 [If1] | 7.5 | > 10 | significant inhibitory effect | better than that of the positive control GS7340 | without cytotoxicity | –
10 | Cc1cccc(C)c1O[P@@](=O)(CO[C@H](C)Cn1cnc2c(N)ncnc21)NC(C)(C)C(=O)OC(C)C [Ih1] | 5.9 | > 10 | significant inhibitory effect | better than that of the positive control GS7340 | without cytotoxicity | –
11 | CC(C)OC(=O)C(C)(C)N[P@](=O)(CO[C@H](C)Cn1cnc2c(N)ncnc21)Oc1ccc(F)cc1 [Ii1] | 8.3 | > 10 | – | better than that of the positive control GS7340 | – | –
12 | CC(C)OC(=O)C(C)(C)N[P@](=O)(CO[C@H](C)Cn1cnc2c(N)ncnc21)Oc1ccc(C(F)(F)F)cc1 [Ij1] | 7 | > 10 | significant inhibitory effect | better than that of the positive control GS7340 | without cytotoxicity | –
13 | CC(C)OC(=O)OCOP(=O)(CO[C@H](C)Cn1cnc2c(N)ncnc21)OCOC(=O)OC(C)C [Tenofovir Disoproxil, reference compound] | – | – | – | – | – | EC50 ([7]; Human immunodeficiency virus 1, MT2, 72 h, MT-2 cells infected with HIV-1 (IIIb), 3 days, read-out: EC50): 11 nM; CC50 at 3 days [8]: 16.9 µM
